The target in test [1] is mouse CLEC-2 (Fc-mCLEC-2) (Mus musculus, UniProt Q9JL99). The test can be described thus: biochemical.
For test [2], the target named is human CLEC-2 (hFc-CLEC-2) (Homo sapiens, UniProt Q9P126). As to the kind of experiment: biochemical.
human CLEC-2 (hFc-CLEC-2), sequence (Q9P126 55-229 limits assumed): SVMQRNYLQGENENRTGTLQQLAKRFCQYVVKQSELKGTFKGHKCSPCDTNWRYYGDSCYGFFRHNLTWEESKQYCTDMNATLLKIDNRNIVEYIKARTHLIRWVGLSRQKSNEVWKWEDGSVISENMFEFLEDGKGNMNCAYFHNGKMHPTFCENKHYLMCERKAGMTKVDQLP

mouse CLEC-2 (Fc-mCLEC-2), sequence (Q9JL99 53-229 limits assumed): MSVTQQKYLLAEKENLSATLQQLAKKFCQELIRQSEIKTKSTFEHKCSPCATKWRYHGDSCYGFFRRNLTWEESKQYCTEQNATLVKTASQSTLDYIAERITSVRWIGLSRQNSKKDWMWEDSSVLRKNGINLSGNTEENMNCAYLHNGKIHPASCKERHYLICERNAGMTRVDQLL

Usually Kd stands for the constant that tells how readily two partners part at equilibrium. Read a high Kd as weaker binding. As for `C=CC1=C(C)C2=Cc3c(C=C)c(C)c4[n]3[Fe]([Cl])[n]3c(c(C)c(CCC(=O)O)c3=CC3=NC(=C4)C(C)=C3CCC(=O)O)=CC1=N2` [hemin], the Kd in test [1] and in test [2] was roughly 200 nM each time.

The record behind these values is paper PMC7849553 (Haematologica, 2020).
